Data on 15 molecules can be found in patent publication US9630929B2, “Benzenesulfonamide compounds and their use as therapeutic agents” (XENON PHARMACEUTICALS INC., priority 2011, dated 2017).

Common to all, as to format: cell-based
The target of data set [1] is T1, NaV1.7 (Homo sapiens (Human), UniProt Q15858). Nature of the data set: NaV flux assay, inhibition of NaV1.7. Conditions: NaV flux data, included when EP data is not available.
For data set [2], the target named is T2, NaV1.5 (Homo sapiens (Human), UniProt Q14524). Nature of the data set: NaV flux assay, inhibition of NaV1.5. Conditions: NaV flux data, included when EP data is not available.
T2 sequence (Q14524 whole entry): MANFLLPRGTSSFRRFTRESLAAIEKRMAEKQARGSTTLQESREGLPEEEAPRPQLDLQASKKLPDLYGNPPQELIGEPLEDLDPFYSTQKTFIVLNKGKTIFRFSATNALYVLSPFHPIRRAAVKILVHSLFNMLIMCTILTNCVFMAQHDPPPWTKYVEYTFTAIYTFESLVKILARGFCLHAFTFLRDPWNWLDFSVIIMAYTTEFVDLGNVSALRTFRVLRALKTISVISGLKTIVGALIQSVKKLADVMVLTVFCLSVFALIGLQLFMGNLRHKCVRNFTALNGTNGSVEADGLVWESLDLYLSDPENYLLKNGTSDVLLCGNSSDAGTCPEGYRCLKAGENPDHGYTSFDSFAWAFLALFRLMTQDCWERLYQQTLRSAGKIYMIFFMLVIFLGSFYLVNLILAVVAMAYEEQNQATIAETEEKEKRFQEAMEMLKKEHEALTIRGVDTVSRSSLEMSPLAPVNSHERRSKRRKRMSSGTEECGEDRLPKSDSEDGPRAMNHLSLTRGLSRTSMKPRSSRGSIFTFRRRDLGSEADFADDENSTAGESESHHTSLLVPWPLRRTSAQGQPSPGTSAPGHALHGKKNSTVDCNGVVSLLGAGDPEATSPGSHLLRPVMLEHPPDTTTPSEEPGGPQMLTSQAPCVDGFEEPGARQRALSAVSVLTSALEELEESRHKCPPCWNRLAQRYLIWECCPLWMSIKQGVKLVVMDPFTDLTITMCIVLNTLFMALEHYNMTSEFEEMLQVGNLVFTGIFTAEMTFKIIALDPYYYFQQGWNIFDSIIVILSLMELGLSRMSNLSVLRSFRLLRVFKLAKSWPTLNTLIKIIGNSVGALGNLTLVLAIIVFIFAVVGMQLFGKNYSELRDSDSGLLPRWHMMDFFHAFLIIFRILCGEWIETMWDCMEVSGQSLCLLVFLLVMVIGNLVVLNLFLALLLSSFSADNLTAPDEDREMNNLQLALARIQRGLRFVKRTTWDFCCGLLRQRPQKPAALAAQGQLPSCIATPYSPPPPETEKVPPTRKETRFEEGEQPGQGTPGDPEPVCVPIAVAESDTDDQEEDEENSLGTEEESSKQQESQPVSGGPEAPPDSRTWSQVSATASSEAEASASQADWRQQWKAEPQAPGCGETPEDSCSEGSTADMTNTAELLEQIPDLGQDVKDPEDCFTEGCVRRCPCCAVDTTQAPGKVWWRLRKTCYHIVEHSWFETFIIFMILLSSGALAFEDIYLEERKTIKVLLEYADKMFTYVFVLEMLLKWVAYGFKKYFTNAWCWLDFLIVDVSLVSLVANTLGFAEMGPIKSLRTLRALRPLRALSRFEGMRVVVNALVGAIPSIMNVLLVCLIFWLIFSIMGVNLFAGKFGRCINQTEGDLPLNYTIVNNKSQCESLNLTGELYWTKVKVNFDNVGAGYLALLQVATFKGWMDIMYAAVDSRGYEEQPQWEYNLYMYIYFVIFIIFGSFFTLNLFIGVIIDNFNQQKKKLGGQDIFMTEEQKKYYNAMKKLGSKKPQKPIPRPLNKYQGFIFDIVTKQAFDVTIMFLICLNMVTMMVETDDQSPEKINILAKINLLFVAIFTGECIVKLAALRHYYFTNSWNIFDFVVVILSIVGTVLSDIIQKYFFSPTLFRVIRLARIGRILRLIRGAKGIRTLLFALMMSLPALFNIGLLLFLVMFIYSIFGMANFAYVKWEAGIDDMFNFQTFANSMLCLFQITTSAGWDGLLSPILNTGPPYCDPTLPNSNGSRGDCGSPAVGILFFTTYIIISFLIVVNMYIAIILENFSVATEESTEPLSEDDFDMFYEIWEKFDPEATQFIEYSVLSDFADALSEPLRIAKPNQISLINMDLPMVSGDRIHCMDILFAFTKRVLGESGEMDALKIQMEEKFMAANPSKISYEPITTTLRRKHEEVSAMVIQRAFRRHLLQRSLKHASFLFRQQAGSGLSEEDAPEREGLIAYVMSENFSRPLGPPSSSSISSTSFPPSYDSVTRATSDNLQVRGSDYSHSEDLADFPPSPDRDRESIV
Data set [3] addresses T2, NaV1.5. As to the kind of experiment: Patch voltage clamp electrophysiology (EP), affinity for the inactivated state of Nav1.5. As for the experimental part:
Patch voltage clamp electrophysiology allows for the direct measurement and quantification of block of voltage-gated sodium channels (Nav's), and allows the determination of the time- and voltage-dependence of block which has been interpreted as differential binding to the resting, open, and inactivated states of the sodium channel (Hille, B., Journal of General Physiology (1977), 69: 497-515).
(§1) The following patch voltage clamp electrophysiology studies were performed on representative compounds of the invention using human embryonic kidney cells (HEK), permanently transfected with an expression vector containing the full-length cDNA coding for the desired human sodium channel α-subunit, grown in culture media containing 10% FBS, 1% PSG, and 0.5 mg/mL G418 at 37° C. with 5% CO2. […] Nav1.7 and Nav1.5 cDNAs (NM_002977 and AC137587; SCN5A, respectively) were stably expressed in HEK-293 cells. The β1 subunit was coexpressed only in the Nav1.7 cell line.
(§2) Sodium currents were measured using the patch clamp technique in the whole-cell configuration using either a PatchXpress automated voltage clamp or manually using an Axopatch 200B (Axon Instruments) or Model 2400 (A-M systems) amplifier. […] The pipette was filled with a solution comprised of: 5 mM NaCl, 10 mM CsCl, 120 mM CsF, 0.1 mM CaCl2, 2 mM MgCl2, 10 mM HEPES, 10 mM EGTA; and adjusted to pH 7.2 with CsOH. The external solution had the following composition: 140 mM NaCl, 5 mM KCl, 2 mM CaCl2, 1 mM MgCl2, 10 mM HEPES; and adjusted to pH 7.4 with NaOH. In some studies, the external sodium was reduced by equimolar replacement with choline. Osmolarity in the CsF internal and NaCl external solutions was adjusted to 300 mOsm/kg and 310 mOsm/kg with glucose, respectively. All recordings were performed at ambient temperature in a bath chamber with a volume of 150 μL. Control sodium currents were measured in 0.5% DMSO. Controls and representative compounds of the invention were applied to the recording chamber through a 4-pinch or 8-pinch valve bath perfusion system manufactured by ALA Scientific Instruments.
Currents were recorded at 40 kHz sampling frequency, filtered at […], and stored using a Digidata-1322A analogue/digital interface with the pClamp software (Axon Instruments). Series resistance compensation was applied (60-80%). […] All statistics in this study are given as mean±SD.
(§3) The membrane potential was maintained at a voltage where inactivation of the channel is complete (which was −60 mV for both Nav1.7 and Nav1.5). The voltage is then stepped back to a very negative (Vhold=−150 mV) voltage for 20 ms and then a test pulse is applied to quantify the compound block. […] The percent decrease in sodium current following wash-on of compound was taken as the percent block of sodium channels.
(§4) The Example numbers provided in Table 1 and Table 2 correspond to the Examples herein: […]

Data set [4] deals with T1, NaV1.7. As to the kind of experiment: Patch voltage clamp electrophysiology (EP), affinity for the inactivated state of Nav1.7. Conditions: HEK-293 cells expressing human Nav1.7 with β1 subunit. As for the experimental part: as §1, §2
Series resistance compensation was applied (60-80%). […] All statistics in this study are given as mean±SD.
as §3, §4

T1 sequence (Q15858 other isoform, or with tags, fused parts or gaps): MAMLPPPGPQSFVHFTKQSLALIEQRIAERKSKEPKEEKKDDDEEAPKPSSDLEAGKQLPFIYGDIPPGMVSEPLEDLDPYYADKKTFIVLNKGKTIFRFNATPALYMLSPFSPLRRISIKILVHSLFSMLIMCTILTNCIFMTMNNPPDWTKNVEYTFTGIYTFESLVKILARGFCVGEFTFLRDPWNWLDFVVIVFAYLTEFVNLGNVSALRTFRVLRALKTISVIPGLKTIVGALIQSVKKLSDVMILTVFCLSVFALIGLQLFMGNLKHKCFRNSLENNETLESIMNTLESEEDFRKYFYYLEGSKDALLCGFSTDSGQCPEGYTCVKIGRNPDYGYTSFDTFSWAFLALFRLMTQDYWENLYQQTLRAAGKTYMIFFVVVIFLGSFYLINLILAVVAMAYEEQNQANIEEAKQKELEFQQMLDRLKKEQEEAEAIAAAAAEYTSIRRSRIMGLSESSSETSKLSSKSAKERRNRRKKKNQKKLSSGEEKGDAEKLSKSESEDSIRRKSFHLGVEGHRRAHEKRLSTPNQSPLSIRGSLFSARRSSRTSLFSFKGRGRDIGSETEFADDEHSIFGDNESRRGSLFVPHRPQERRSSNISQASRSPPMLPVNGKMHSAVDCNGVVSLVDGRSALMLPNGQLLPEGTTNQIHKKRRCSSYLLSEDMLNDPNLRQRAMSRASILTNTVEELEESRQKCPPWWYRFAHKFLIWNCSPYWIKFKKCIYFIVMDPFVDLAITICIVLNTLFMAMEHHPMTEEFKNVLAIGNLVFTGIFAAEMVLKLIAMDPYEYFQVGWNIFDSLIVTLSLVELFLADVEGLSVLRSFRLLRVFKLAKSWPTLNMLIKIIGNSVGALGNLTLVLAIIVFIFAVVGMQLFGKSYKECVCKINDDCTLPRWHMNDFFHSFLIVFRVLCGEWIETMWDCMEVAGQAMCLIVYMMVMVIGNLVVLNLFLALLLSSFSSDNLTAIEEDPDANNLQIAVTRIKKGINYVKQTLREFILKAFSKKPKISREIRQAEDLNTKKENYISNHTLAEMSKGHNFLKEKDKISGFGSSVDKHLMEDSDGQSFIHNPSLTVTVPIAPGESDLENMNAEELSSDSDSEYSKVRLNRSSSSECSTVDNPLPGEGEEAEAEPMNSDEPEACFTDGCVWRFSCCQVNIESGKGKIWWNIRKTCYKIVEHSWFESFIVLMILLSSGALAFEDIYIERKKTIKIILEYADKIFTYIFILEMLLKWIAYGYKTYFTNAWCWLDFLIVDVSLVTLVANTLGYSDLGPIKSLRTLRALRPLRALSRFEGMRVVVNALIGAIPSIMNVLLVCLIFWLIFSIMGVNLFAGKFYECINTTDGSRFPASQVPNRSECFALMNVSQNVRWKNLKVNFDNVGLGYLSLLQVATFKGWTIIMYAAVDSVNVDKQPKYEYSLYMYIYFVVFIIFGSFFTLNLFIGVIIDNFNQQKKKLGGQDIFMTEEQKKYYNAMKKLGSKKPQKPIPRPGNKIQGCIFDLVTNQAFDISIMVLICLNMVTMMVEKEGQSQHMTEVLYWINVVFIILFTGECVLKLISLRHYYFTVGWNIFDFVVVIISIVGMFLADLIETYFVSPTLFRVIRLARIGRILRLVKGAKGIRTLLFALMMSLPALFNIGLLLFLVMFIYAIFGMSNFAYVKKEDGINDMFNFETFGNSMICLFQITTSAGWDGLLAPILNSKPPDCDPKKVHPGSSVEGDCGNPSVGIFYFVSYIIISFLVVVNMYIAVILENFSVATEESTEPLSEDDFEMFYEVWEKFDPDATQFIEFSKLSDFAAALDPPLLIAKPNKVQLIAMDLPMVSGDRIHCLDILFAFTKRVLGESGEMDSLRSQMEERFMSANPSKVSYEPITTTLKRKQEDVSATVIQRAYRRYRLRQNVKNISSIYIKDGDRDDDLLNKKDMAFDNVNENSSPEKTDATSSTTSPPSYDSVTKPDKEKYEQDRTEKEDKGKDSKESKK
T1 sequence (Q07699 19-218 partner): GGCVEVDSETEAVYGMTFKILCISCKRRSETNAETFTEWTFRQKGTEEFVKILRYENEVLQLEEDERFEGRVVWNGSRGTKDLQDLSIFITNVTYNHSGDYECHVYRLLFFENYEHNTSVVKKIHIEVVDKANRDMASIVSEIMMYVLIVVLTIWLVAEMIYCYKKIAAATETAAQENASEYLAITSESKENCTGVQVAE

The IC50 is the concentration that gives 50% inhibition. Turning to `COc1ccc([C@@H]2CCNC[C@H]2COc2cc(F)c(S(=O)(=O)Nc3ncns3)cc2F)cc1` (relative stereo) [Example 94, 2,5-difluoro-4-((trans-4-(4-methoxyphenyl)piperidin-3-yl)methoxy)-N-(1,2,4-thiadiazol-5-yl)benzenesulfonamide], the IC50 at NaV1.7 [1] is 0.132 µM; on NaV1.5 [2], above 10 µM.
Taken in the same sequence, the figures for `O=S(=O)(Nc1ncns1)c1cc(F)c(OCC2CNCCN2c2ccc(Cl)cc2)cc1F` (centres unmarked) [Example 112, 4-((1-(4-chlorophenyl)piperazin-2-yl)methoxy)-2,5-difluoro-N-(1,2,4-thiadiazol-5-yl)benzenesulfonamide] were 0.326 µM and above 10 µM.
For `Cc1ccc([C@@H]2CCNC[C@H]2COc2cc(F)c(S(=O)(=O)Nc3ncns3)cc2F)cc1` (relative stereo) [Example 100, 2,5-difluoro-N-(1,2,4-thiadiazol-5-yl)-4-((trans-4-(p-tolyl)piperidin-3-yl)methoxy)benzenesulfonamide] the same measures were 0.393 µM and above 10 µM.
`O=S(=O)(Nc1ncns1)c1cc(F)c(OC[C@@H]2CNCC[C@H]2c2ccc(Cl)c(F)c2)cc1F` (relative stereo) [Example 97, 4-((trans-4-(4-chloro-3-fluorophenyl)piperidin-3-yl)methoxy)-2,5-difluoro-N-(1,2,4-thiadiazol-5-yl)benzenesulfonamide] yielded an IC50 on NaV1.5 [2] above 10 µM.
`O=S(=O)(Nc1ncns1)c1cc(F)c(OC[C@@H]2C[C@@H](O)CCC2c2ccc(Cl)cc2)cc1F` (stereo partly drawn) [Example 111, 4-(((trans-5R)-2-(4-chlorophenyl)-5-hydroxycyclohexyl)methoxy)-2,5-difluoro-N-(1,2,4-thiadiazol-5-yl)benzenesulfonamide]: the figures for the IC50 on NaV1.7 [1] and at NaV1.5 [2] were 2.04 µM and above 10 µM, respectively.
Taken in the same sequence, the figures for `O=S(=O)(Nc1ncns1)c1cc(F)c(OC[C@@H]2C[C@H](O)CCC2c2ccc(Cl)cc2)cc1F` (stereo partly drawn) [Example 110, 4-(((trans-5S)-2-(4-chlorophenyl)-5-hydroxycyclohexyl)methoxy)-2,5-difluoro-N-(1,2,4-thiadiazol-5-yl)benzenesulfonamide] were 0.426 µM and above 10 µM.
For `O=S(=O)(Nc1ncns1)c1cc(F)c(OC[C@@H]2CNCC[C@H]2c2ccc(F)c(C(F)F)c2)cc1F` (relative stereo) [Example 108, 4-((trans-4-(3-(difluoromethyl)-4-fluorophenyl)piperidin-3-yl)methoxy)-2,5-difluoro-N-(1,2,4-thiadiazol-5-yl)benzenesulfonamide] the same measures were 0.071 µM and above 10 µM.
In the case of `CC(C)CNS(=O)(=O)c1cc(F)c(OC[C@@H]2CNCC[C@H]2c2ccc(Cl)cc2)cc1F` (relative stereo) [Example 96, 4-((trans-4-(4-chlorophenyl)piperidin-3-yl)methoxy)-2,5-difluoro-N-isobutylbenzenesulfonamide], the IC50 against NaV1.7 [1] came out at 4.9 µM; against NaV1.5 [2] it was 7.56 µM.
For the molecule `O=S(=O)(Nc1ncns1)c1cc(F)c(OC[C@@H]2CNCC[C@H]2c2ccc(F)c(C(F)(F)F)c2)cc1F` (relative stereo) [Example 107, 2,5-difluoro-4-((trans-4-(4-fluoro-3-(trifluoromethyl)phenyl)piperidin-3-yl)methoxy)-N-(1,2,4-thiadiazol-5-yl)benzenesulfonamide], the values for the IC50 at NaV1.7 [1] and against NaV1.5 [2] were 0.038 µM and above 10 µM, respectively.
For `O=S(=O)(Nc1ncns1)c1cc(F)c(OC[C@@H]2CNCC[C@H]2c2cc(F)c(F)cc2F)cc1F` (relative stereo) [Example 106, 2,5-difluoro-N-(1,2,4-thiadiazol-5-yl)-4-((trans-4-(2,4,5-trifluorophenyl)piperidin-3-yl)methoxy)benzenesulfonamide] the same measures were 0.181 µM and above 10 µM.
Taken in the same sequence, the figures for `O=S(=O)(c1cc(F)c(OC[C@@H]2CNCC[C@H]2c2ccc(F)cc2)cc1F)n1cccn1` (relative stereo) [Example 98, trans-3-((4-((1H-pyrazol-1-yl)sulfonyl)-2,5-difluorophenoxy)methyl)-4-(4-fluorophenyl)piperidine] were 7.22 µM and 7.53 µM.
`O=C1CC[C@@H](c2ccc(Cl)cc2)[C@H](COc2cc(F)c(S(=O)(=O)Nc3ncns3)cc2F)C1` (relative stereo) [Example 109, 4-((trans-2-(4-chlorophenyl)-5-oxocyclohexyl)methoxy)-2,5-difluoro-N-(1,2,4-thiadiazol-5-yl)benzenesulfonamide]: the values for the IC50 at NaV1.7 [1] and at NaV1.5 [2] were 0.244 µM and above 10 µM, respectively.
For `CN(c1ncns1)S(=O)(=O)c1cc(F)c(OC[C@@H]2CNCC[C@H]2c2ccc(Cl)cc2)cc1F` (relative stereo) [Example 79, 4-((trans-4-(4-chlorophenyl)piperidin-3-yl)methoxy)-2,5-difluoro-N-methyl-N-(1,2,4-thiadiazol-5-yl)benzenesulfonamide] the same measures were 7.88 µM and above 10 µM.
Regarding `O=S(=O)(Nc1ncns1)c1ccc(OC[C@@H]2CNCC[C@H]2c2ccc(Cl)cc2)c(F)c1` (relative stereo) [Example 59, 4-((trans-4-(4-chlorophenyl)piperidin-3-yl)methoxy)-3-fluoro-N-(1,2,4-thiadiazol-5-yl)benzenesulfonamide], the IC50 on NaV1.5 [3] (HEK-293 cells expressing human Nav1.5, read-out: NaV1.5 IC50) was above 10 µM; at NaV1.5 [3] (HEK-293 cells expressing human Nav1.5, read-out: NaV1.5 IC50(μM) (class)), above 10 µM; on NaV1.7 [4] (read-out: NaV1.7 (IC50 class)) it was below 0.1 µM; on NaV1.7 [4] (read-out: NaV1.7 IC50), 0.0086 µM.
For `O=S(=O)(Nc1ncns1)c1cc(F)c(OC[C@@H]2CNCC[C@H]2c2ccc(Cl)c(Cl)c2)cc1F` (relative stereo) [Example 92, 4-((trans-4-(3,4-dichlorophenyl)piperidin-3-yl)methoxy)-2,5-difluoro-N-(1,2,4-thiadiazol-5-yl)benzenesulfonamide], the IC50 against NaV1.5 [2] was above 10 µM; at NaV1.7 [4] (read-out: NaV1.7 (IC50 class)), below 0.1 µM; at NaV1.7 [4] (read-out: NaV1.7 IC50) it was 0.0008 µM.
